Laboratory results as given in patent US20060069132A1, “Azolecarboxamide herbicides” (priority 2004, published 2006).

Legend:
morningglory = experiment: Test A pre-/postemergence herbicide test; type: in vivo, Ipomoea spp.
In short: (§1)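 Plants are held in greenhouse about ten days after treatment, then compared with untreated controls and scored 0 (no effect) to 100 (complete control). Preemergence dosing is a directed soil spray on sown sandy loam; postemergence dosing is spray to runoff at 2–10 cm height.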

barnyardgrass [1] = experiment: Test C flooded paddy test; type: in vivo, Echinochloa crus-galli; details: for Plant response rating, Barnyardgrass: visual rating after 12 to 14 days
In short: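 Visual rating, 0 (no effect) to 100 (complete control), vs. controls at 12–14 d in greenhouse. Postemergence: 1–4-leaf plants, 2–18 cm. Paddy: flooded, barnyardgrass at 2-leaf stage.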

barnyardgrass [2] = experiment: Test A pre-/postemergence herbicide test; type: in vivo, Echinochloa crus-galli
In short: as §1

large crabgrass = experiment: Test A pre-/postemergence herbicide test; type: in vivo, Digitaria sanguinalis
In short: as §1

rice [3] = experiment: Test C flooded paddy test; type: in vivo, Oryza sativa; details: for Plant response rating, Rice: visual rating after 12 to 14 days
In short: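 Plants were grown to the 1- to 4-leaf stage (2–18 cm) and then treated postemergence, or grown to the 2-leaf stage for the flooded paddy test. They were held in a greenhouse for 12 to 14 days and then scored by eye against controls, where 0 is no effect and 100 is complete control.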

rice [4] = experiment: Test B pre-/postemergence herbicide test; type: in vivo, Oryza sativa; details: for Plant response rating, Rice: preemergence
In short: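 Species tested were Echinochloa crus-galli, Ipomoea coccinea, Xanthium strumarium and Oryza sativa, treated both before emergence and at the 1- to 4-leaf stage; rice and barnyardgrass were also tested under flooding at 2 leaves. Greenhouse incubation lasted 13–15 days before visual 0–100 scoring.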

Surinam grass = experiment: Test C pre-/postemergence herbicide test; type: in vivo, Urochloa decumbens
Excerpt: Seeds of plant species selected from bermudagrass (Cynodon dactylon (L.) Pers.), Surinam grass (Urochloa decumbens (Staph) R. D. Webster, previously named Brachiaria decumbens Stapf), cocklebur (Xanthium strumarium L.), corn (Zea mays L.), large crabgrass (Digitaria sanguinalis (L.) Scop.), woolly cupgrass (Eriochloa villosa (Thunb.) Kunth), giant foxtail (Setaria faberi Herrm.), goosegrass (Eleusine indica (L.) Gaertn.), johnsongrass (Sorghum halepense (L.) Pers.), kochia (Kochia scoparia (L.) Schrad.), lambsquarters (Chenopodium album L.), morningglory (Ipomoea coccinea L.), eastern black nightshade (Solanum ptycanthum Dunal), yellow nutsedge (Cyperus esculentus L.), pigweed (Amaranthus retroflexus L.), common ragweed (Ambrosia elatior L.), soybean (Glycine max (L.) Merr.), common (oilseed) sunflower (Helianthus annuus L.) and velvetleaf (Abutilon theophrasti Medik.) were planted and treated preemergence with test chemicals formulated in a non-phytotoxic solvent mixture which included a surfactant.
At the same time, plants selected from these crop and weed species and also winter barley (Hordeum vulgare L.), blackgrass (Alopecurus myosuroides Huds.), canarygrass (Phalaris minor Retz.), chickweed (Stellaria media (L.) Vill.), downy bromegrass (Bromus tectorum L.), green foxtail (Setaria viridis (L.) Beauv.), Italian ryegrass (Lolium multiflorum Lam.), wheat (Triticum aestivum L.), wild oat (Avenafatua L.) and windgrass (Apera spica-venti (L.) Beauv.) were treated with postemergence applications of some of the test chemicals formulated in the same manner. Plants ranged in height from 2 to 18 cm (1- to 4-leaf stage) for postemergence treatments. Plant species in the flooded paddy test consisted of rice (Oryza sativa), smallflower umbrella sedge (Cyperus difformis L.), ducksalad (Heteranthera limosa (Sw.) Willd.) and barnyardgrass (Echinochloa crus-galli (L.) Beauv.) grown to the 2-leaf stage for testing. Treated plants and controls were maintained in a greenhouse for 12 to 14 days, after which time all species were compared to controls and visually evaluated. Plant response ratings, summarized in Table C, are based on a scale of 0 to 100 where 0 is no effect and 100 is complete control. A dash (-) response means no test result.

[5] = Postemergence, 500 g ai/ha, 0 to 100 scale, 0 no effect, 100 complete control
[6] = Postemergence, 2000 g ai/ha, 0 to 100 scale, 0 no effect, 100 complete control
[7] = Preemergence, 500 g ai/ha, visual rating, 0 to 100 scale (0 no effect, 100 complete control)
[8] = Preemergence, 2000 g ai/ha, 0 to 100 scale, 0 no effect, 100 complete control
[9] = 62 g ai/ha, scale 0 to 100 (0 no effect, 100 complete control)
[10] = 125 g ai/ha, scale of 0 to 100, 0 is no effect, 100 is complete control
[11] = 250 g ai/ha, scale 0 to 100 (0 no effect, 100 complete control)
[12] = 500 g ai/ha, scale 0 to 100 (0 no effect, 100 complete control)
[13] = 125 g ai/ha, 0 to 100 scale, 0 is no effect, 100 is complete control
[14] = Postemergence, 125 g ai/ha, 0 to 100 scale, 0 no effect, 100 complete control
[15] = preemergence, 125 g ai/ha, visual injury, 0 to 100 scale (0 no effect, 100 complete control)
[16] = 250 g ai/ha, scale of 0 to 100, 0 is no effect, 100 is complete control
[17] = Preemergence, 2000 g ai/ha, visual rating, 0 to 100 scale (0 no effect, 100 complete control)
[18] = 125 g ai/ha, scale 0 to 100 (0 no effect, 100 complete control)
[19] = preemergence, 500 g ai/ha, visual injury, 0 to 100 scale (0 no effect, 100 complete control)

Row | Structure (SMILES) | Plant response rating, Morningglory (morningglory; [6]) | Morningglory plant response rating (morningglory; [7]) | Barnyardgrass plant response rating (barnyardgrass [1]; [9]) | Barnyardgrass plant response rating (barnyardgrass [1]; [10]) | Plant response rating, Barnyardgrass (barnyardgrass [1]; [12]) | Plant response rating, Barnyardgrass (barnyardgrass [2]; [6]) | Barnyardgrass plant response rating (barnyardgrass [2]; [7]) | Plant response rating, Crabgrass, Large (large crabgrass; [6]) | Crabgrass, Large plant response rating (large crabgrass; [7]) | Rice plant response rating (rice [3]; [9]) | Rice plant response rating (rice [3]; [10]) | Plant response rating, Rice (rice [3]; [12]) | Plant response rating, Rice (rice [4]; [13]) | Barnyardgrass plant response rating (barnyardgrass [1]; [16]) | Rice plant response rating (rice [3]; [16]) | Morningglory plant response rating (morningglory; [5]) | Morningglory plant response rating (morningglory; [17]) | Barnyardgrass plant response rating (barnyardgrass [2]; [5]) | Barnyardgrass plant response rating (barnyardgrass [2]; [17]) | Rice plant response rating (rice [3]; [18]) | further results
1 | CCn1nc(C(C)(C)C)cc1C(=O)Nc1cccc(C(=O)NCCF)c1 [Compound 45] | 25 | 15 | 25 | 30 | 80 | 100 | 80 | 90 | 55 | 30 | 30 | 65 | – | – | – | – | – | – | – | – | Plant response rating, Morningglory (morningglory; [5]): 25; Morningglory plant response rating (morningglory; [8]): 75; Plant response rating, Barnyardgrass (barnyardgrass [1]; [11]): 60; Plant response rating, Barnyardgrass (barnyardgrass [2]; [5]): 100; Barnyardgrass plant response rating (barnyardgrass [2]; [8]): 95; Plant response rating, Crabgrass, Large (large crabgrass; [5]): 80; Crabgrass, Large plant response rating (large crabgrass; [8]): 75; Plant response rating, Rice (rice [3]; [11]): 35
2 | CCn1nc(C(C)(C)C)cc1C(=O)Nc1cccc(C(=O)NC(C)C)c1 [Compound 51] | – | 15 | 0 | 0 | 75 | – | 85 | – | 80 | 0 | 0 | 50 | 0 | 20 | 15 | – | – | – | – | – | Rice plant response rating (rice [4]; Preemergence, 500 g ai/ha, scale 0 to 100): 50; Morningglory plant response rating (morningglory; [14]): 10; Plant response rating, Morningglory (morningglory; [5]): 35; Morningglory plant response rating (morningglory; [15]): 10; Barnyardgrass plant response rating (barnyardgrass [2]; [14]): 50; Plant response rating, Barnyardgrass (barnyardgrass [2]; [5]): 75; Barnyardgrass plant response rating (barnyardgrass [2]; [15]): 60; Crabgrass, Large plant response rating (large crabgrass; [14]): 30; Plant response rating, Crabgrass, Large (large crabgrass; [5]): 30; Crabgrass, Large plant response rating (large crabgrass; [15]): 80
3 | CCn1nc(C(C)(C)C)cc1C(=O)Nc1cccc(C(C)=O)c1 [Compound 122] | 65 | 25 | 20 | 50 | 80 | 85 | 90 | 65 | 70 | 0 | 10 | 50 | 20 | 60 | 10 | 30 | 30 | 75 | 95 | – | Crabgrass, Large plant response rating (large crabgrass; [5]): 35; Crabgrass, Large plant response rating (large crabgrass; [17]): 95
4 | CCn1nc(C(C)(C)C)cc1C(=O)Nc1cc(C(=O)NCC2CC2)ccn1 [Compound 155] | – | – | 0 | 25 | 65 | – | – | – | – | 0 | – | 35 | 20 | 50 | 0 | – | – | – | – | 0 | Plant response rating, Rice (rice [4]; 500 g ai/ha, visual rating 0-100, 0 no effect, 100 complete control): 50
5 | CCN(CC)C(=O)c1cncc(NC(=O)c2cc(C(C)(C)C)nn2CC)c1 [Compound 261, 5-[[[3-(1,1-dimethylethyl)-1-ethyl-1H-pyrazol-5-yl]carbonyl]amino]-N,N-diethyl-3-pyridinecarboxamide] | – | – | – | – | – | – | – | – | – | – | – | – | – | – | – | – | – | – | – | – | plant injury at 125 g/ha (rice [4]; Oryza sativa, pre-emergence, 336 h, 125 g ai/ha, 0 = no effect, 100 = complete control, read-out: Rice plant response rating (0 to 100 scale)): 0%; plant injury at 500 g/ha (rice [4]; Oryza sativa, pre-emergence, 336 h, 500 g ai/ha, visual rating, 0 = no effect, 100 = complete control, read-out: Plant response rating, Rice): 60%
6 | CCn1nc(C(C)(C)C)cc1C(=O)Nc1cc(OC(F)(F)F)ccc1F [Compound 338] | 70 | – | – | – | – | 35 | – | 45 | – | – | – | – | – | – | – | 25 | 40 | 20 | 95 | – | Morningglory plant response rating (morningglory; [19]): 10; Barnyardgrass plant response rating (barnyardgrass [2]; [19]): 60; Crabgrass, Large plant response rating (large crabgrass; [5]): 20; Crabgrass, Large plant response rating (large crabgrass; [17]): 100; Crabgrass, Large plant response rating (large crabgrass; [19]): 65; Plant response rating, Surinam Grass (Surinam grass; Postemergence, 250 g ai/ha, scale 0 to 100, 0 no effect, 100 complete control): 0; Plant response rating, Surinam Grass (Surinam grass; Postemergence, 500 g ai/ha, scale 0 to 100, 0 no effect, 100 complete control): 30; Plant response rating, Surinam Grass (Surinam grass; postemergence, 125 g ai/ha, scale 0 to 100): 0; Plant response rating, Surinam Grass (Surinam grass; postemergence, 62 g ai/ha, scale 0 to 100): 0
7 | CCc1nn(C(C)C)nc1C(=O)Nc1cccc(C(=O)N2CCCCC2)c1 [Compound 385] | – | – | 20 | – | 85 | – | – | – | – | – | – | 80 | – | 80 | 65 | – | – | – | – | 50 | Barnyardgrass plant response rating (barnyardgrass [1]; [18]): 55; Rice plant response rating (rice [3]; 62 g ai/ha, scale 0 to 100): 40
8 | CCn1nc(C(C)(C)C)cc1C(=O)Nc1cccc(OS(=O)(=O)CC)c1 [Compound 408] | – | – | 20 | – | 70 | – | – | – | – | – | – | 55 | – | 60 | 45 | – | – | – | – | 35 | Barnyardgrass plant response rating (barnyardgrass [1]; [18]): 45; Rice plant response rating (rice [3]; 62 g ai/ha, scale 0 to 100): 25
9 | CCN(C(C)=O)C(=O)c1ccc(F)c(NC(=O)c2cc(C(C)(C)C)nn2CC)c1 [Compound 413] | 20 | – | 0 | – | 80 | 50 | – | 15 | – | – | – | 70 | – | 70 | 55 | 10 | 15 | 20 | 75 | 45 | Morningglory plant response rating (morningglory; [19]): 5; Barnyardgrass plant response rating (barnyardgrass [1]; [18]): 25; Barnyardgrass plant response rating (barnyardgrass [2]; [19]): 60; Crabgrass, Large plant response rating (large crabgrass; [5]): 10; Crabgrass, Large plant response rating (large crabgrass; [17]): 70; Crabgrass, Large plant response rating (large crabgrass; [19]): 40; Rice plant response rating (rice [3]; 62 g ai/ha, scale 0 to 100): 35
